Data set [1] concerns NHDF. The experiment in a line: WST-1 test, normal human dermal fibroblasts. As to conditions: 72 h, WST-1, normal cells; for pIC50: Homo sapiens, NHDF. In kind it is cell-based. The protocol:
(§1) Hybrids 4–14 were tested as anticancer agents against four human cancer cell lines: colon cancer (Caco-2), glioblastoma (SNB-19), lung cancer (A549), ovarian cancer (SKOV-3), and normal human dermal fibroblasts (NHDFs). Cisplatin was used as the reference substance. The results are presented as the compound concentration of the compound (μM) that inhibits the growth of 50% of cancer cells compared to control cells (IC50). A negative value (Neg) means that the compound concentration of the tested hybrids was greater than 500 µM. […] It is generated only by a weak van der Waals interaction with Arg84. […] There is also a visible difference in activity depending on the type of group present on the triazole ring (substituent C in Figure 2). The results obtained indicate that hybrids containing aromatic systems as a C substituent in their structure, especially another quinoline molecule (compounds 9 and 10), have high activity.
(§2) Cell cultures were performed in 96-well plates (Nunc Thermo Fisher Scientific, Waltham, MA, USA). Cells were seeded at 5 × 10^4/well and incubated for 24 h (at 37 °C, 5% CO2, and constant humidity). The medium was replaced with fresh with the addition of test compounds at a concentration of 0.1–100 µg/mL of DMSO and incubated again for another 72 h. After this time, the WST-1 test (Roche Molecular Biochemicals, Mannheim, Germany) was performed to assess the metabolic activity of the cells. Absorbance was measured at λ = 450 nm using a UVM340 microplate reader (Biogenet, Józefów, Poland). Results are expressed as the mean value of at least three independent experiments performed in triplicate.

Data set [2] has as its system A549. The data set is described as follows: WST-1 test, lung cancer cells. In kind it is cell-based, human. As to conditions: for pIC50: Homo sapiens, A549, 72 h, read-out: IC50 A-549. The protocol:
as §1, §2

For data set [3], the system named is Caco-2. The experiment in a line: WST-1 test, colon cancer cells. The class given is cell-based, human. The protocol:
Hybrids 4–14 were tested as anticancer agents against four human cancer cell lines: colon cancer (Caco-2), glioblastoma (SNB-19), lung cancer (A549), ovarian cancer (SKOV-3), and normal human dermal fibroblasts (NHDFs).
as §2

Data set [4] relates to SKOV-3. The data set is described as follows: WST-1 test, ovarian cancer cells. In kind it is cell-based, human. The note with it: Homo sapiens, SK-OV-3, 72 h. On the procedure:
as §1, §2

Data set [5] has as its system SNB-19. The experiment in a line: WST-1 test, glioblastoma cells. In kind it is cell-based, human. On the procedure:
as §1, §2

Data set [6] relates to A549. Further details: method as in doi:10.1016/j.arabjc.2016.10.009. As to conditions: values marked *; read-out: IC50 A-549; cited from earlier work.
For data set [7], the system named is HCC. The note with it: Figure 1; cited from earlier work.
The subject of data set [8] is ROCK1. The note with it: read-out: IC50 for ROCK1; cited from earlier work.

These results are taken from article PMC11243625, “Synthesis, Docking, and Machine Learning Studies of Some Novel Quinolinesulfonamides–Triazole Hybrids with Anticancer Activity” (Molecules, 2024).

pIC50: −log10 of the molar value. Converted amounts (≈) assume the structure as drawn. “Also recorded” adds a separate entry of the source. Where two headings read alike, the source gives them in different places.

Take `CN(Cc1cn(Cc2ccc([N+](=O)[O-])cc2)nn1)S(=O)(=O)c1cccc2cccnc12` [Compound 7b, 8-N-Methyl-N-{[1-(4-nitrobenzyl)-1H-1,2,3-triazol-4-yl]methyl}quinolinesulfonamide]: the melting point lay within 103 to 105 °C. The pIC50 in data set [1] is less than 3.30. Further, in data set [2], the pIC50 is less than 3.30. The compound also showed a pIC50 in [3] (Homo sapiens, Caco-2, 72 h) of 5.61. In addition, the pIC50 in [4] was less than 3.30. Moreover, the pIC50 in data set [5] (Homo sapiens, SNB-19, 72 h) is 6.39.
`O=S(=O)(NCc1cn(CSc2ccccc2)nn1)c1cccc2cccnc12` [Compound 8a, 8-N-[(1-Methylthiophenyl-1H-1,2,3-triazol-4-yl)methyl]quinolinesulfonamide] registered a melting point of 106 to 107 °C. In data set [1], this compound gave a pIC50 of 4.39. Further, in data set [2], the pIC50 was 5.43. Also, the pIC50 in [3] (Homo sapiens, Caco-2, 72 h) is 4.84. This compound also showed a pIC50 in [4] of 3.94. In addition, the pIC50 in [5] (Homo sapiens, SNB-19, 72 h) was 4.14.
In turn, `CN(Cc1cn(CSc2ccccc2)nn1)S(=O)(=O)c1cccc2cccnc12` [Compound 8b, 8-N-Methyl-N-[(1-methylthiophenyl-1H-1,2,3-triazol-4-yl)methyl]quinolinesulfonamide] came in with a melting point of 118 to 119 °C. In data set [1], this compound had a pIC50 of less than 3.30. For the same compound, the pIC50 in [2] is less than 3.30. Moreover, the pIC50 in data set [3] (Homo sapiens, Caco-2, 72 h) is 6.47. Also, in data set [4], the pIC50 is less than 3.30. This compound also showed a pIC50 in [5] (72 h) of 6.46. In addition, the pIC50 in [5] (Homo sapiens, SNB-19, 72 h) is no less than 6.40.
Take `O=S(=O)(NCc1cn(-c2ccnc3cc(Cl)ccc23)nn1)c1cccc2cccnc12` [Compound 9a, 8-N-{[1-(7-chloroquinolin-4-yl)-1H-1,2,3-triazol-4-yl]methyl}quinolinesulfonamide]: the pIC50 is less than 3.30 in data set [1]; 4.75 in data set [3] (Homo sapiens, Caco-2, 72 h); less than 3.30 in data set [6]; 3.97 in data set [4]; 4.20 in data set [5] (Homo sapiens, SNB-19, 72 h).
In turn, `CN(Cc1cn(-c2ccnc3cc(Cl)ccc23)nn1)S(=O)(=O)c1cccc2cccnc12` [Compound 9b, 8-N-Methyl-N-{[1-(7-chloroquinolin-4-yl)-1H-1,2,3-triazol-4-yl]methyl}quinolinesulfonamide] showed a melting point of 189 to 190 °C. Besides, in [1], the “IC50 NHDF” value is given as “lack of cytotoxicity; also recorded: no activity towards NHDF” and the pIC50 was less than 3.30. Besides, the “IC50 A-549” value in [2] (72 h) is “nanomolar concentration range”. Further, the pIC50 in data set [2] is 6.40. This compound also had a pIC50 in data set [3] (Homo sapiens, Caco-2, 72 h) of 6.59. This compound gave a pIC50 in data set [4] of 5.38. The compound further showed a pIC50 in data set [5] (72 h) of 6.42. In data set [5] (Homo sapiens, SNB-19, 72 h), this compound gave a pIC50 of no less than 6.40.
As for `O=S(=O)(NCc1cn(-c2ccnc3c(Br)cccc23)nn1)c1cccc2cccnc12` [Compound 10a, 8-N-{[1-(8-Bromoquinolin-4-yl)-1H-1,2,3-triazol-4-yl]methyl}quinolinesulfonamide], the melting point was 194 to 195 °C. In addition, the pIC50 in [1] was less than 3.30. In data set [2], the pIC50 is 3.95. The same compound showed a pIC50 in data set [3] (Homo sapiens, Caco-2, 72 h) of 5.01. Moreover, the pIC50 in data set [4] was 4.02. This compound had a pIC50 in [5] (Homo sapiens, SNB-19, 72 h) of 4.43.
For `CN(Cc1cn(-c2ccnc3c(Br)cccc23)nn1)S(=O)(=O)c1cccc2cccnc12` [Compound 10b, 8-N-Methyl-N-{[1-(8-bromoquinolin-4-yl)-1H-1,2,3-triazol-4-yl]methyl}quinolinesulfonamide], the melting point lay in the range of 206 to 207 °C. Further, in [1], the “IC50 NHDF” value is given as “have activity against normal cells” and the pIC50 was 4.58. Moreover, the pIC50 in data set [2] was 5.75. Moreover, the pIC50 in data set [3] (72 h) was 6.52. Further, in data set [3] (Homo sapiens, Caco-2, 72 h), the pIC50 is no more than 6.52. The pIC50 in data set [4] was 4.61. The compound further showed a pIC50 in [5] (72 h) of 6.52. Moreover, the pIC50 in data set [5] (Homo sapiens, SNB-19, 72 h) was no less than 6.40.
Compound `Cc1cn(C2CC(n3cc(CNS(=O)(=O)c4cccc5cccnc45)nn3)C(CO)O2)c(=O)[nH]c1=O` [Compound 11a, 8-N-({1-[(2R, 3S, 5S)-2-(Hydroxymethyl)-5-(5-methyl-2,4-dioxo-3,4-dihydropyrimidin-1(2H)-yl)tertrahydrofuran-3-yl]-1H-1,2,3-triazol-4-yl}methyl)quinolinesulfonamide] displayed a melting point of 149 to 150 °C. In [1], this compound showed a pIC50 of 3.71. In [2], the pIC50 is 4.74. The same compound had a pIC50 in [3] (Homo sapiens, Caco-2, 72 h) of 6.44. Further, the pIC50 in [4] was 3.84. In addition, in data set [5] (Homo sapiens, SNB-19, 72 h), the pIC50 was 3.89.
Regarding `Cc1cn(C2CC(n3cc(CN(C)S(=O)(=O)c4cccc5cccnc45)nn3)C(CO)O2)c(=O)[nH]c1=O` [Compound 11b, 8-N-Methyl-N-({1-[(2R, 3S, 5S)-2-(hydroxymethyl)-5-(5-methyl-2,4-dioxo-3,4-dihydropyrimidin-1(2H)-yl)tertrahydrofuran-3-yl]-1H-1,2,3-triazol-4-yl}methyl)quinolinesulfonamide], the melting point lay within 176 to 178 °C. Moreover, in data set [1], the “IC50 NHDF” value was “have activity against normal cells” and the pIC50 was 4.01. Moreover, in data set [2], the pIC50 is 5.89. The compound further had a pIC50 in data set [3] (Homo sapiens, Caco-2, 72 h) of 6.32. In addition, in [4], the pIC50 was 5.15. For the same compound, the pIC50 in [5] (Homo sapiens, SNB-19, 72 h) is 6.23.
In the case of `CCCCn1cc(CNS(=O)(=O)c2cccc3cccnc23)nn1` [Compound 12a, 8-N-{[1-(1-butyl)-1H-1,2,3-triazol-4-yl]methyl}quinolinesulfonamide], the pIC50 in data set [1] is less than 3.30; in data set [3] (Homo sapiens, Caco-2, 72 h) it was 6.42; in [6], less than 3.30; in data set [4], 4.27; in data set [5] (Homo sapiens, SNB-19, 72 h), 6.36.
`CCCCn1cc(CN(C)S(=O)(=O)c2cccc3cccnc23)nn1` [Compound 12b, 8-N-Methyl-N-{[1-(1-butyl)-1H-1,2,3-triazol-4-yl]methyl}quinolinesulfonamide] had a melting point of 74 to 75 °C. The pIC50 in data set [1] was 3.62. In addition, in data set [2], the pIC50 is 3.72. The same compound had a pIC50 in data set [3] (Homo sapiens, Caco-2, 72 h) of 5.89. In [4], this compound had a pIC50 of 4.09. This compound also had a pIC50 in data set [5] (Homo sapiens, SNB-19, 72 h) of 4.20.
In the case of `CCOC(=O)CCn1cc(CNS(=O)(=O)c2cccc3cccnc23)nn1` [Compound 13a, Ethyl 3-{[4-(8-sulfamoylquinolyl)methyl]-1H-1,2,3-triazol-1-yl}propanoate], the pIC50 is 3.65 in data set [1]; 6.49 in data set [3] (Homo sapiens, Caco-2, 72 h); less than 3.30 in data set [6]; 4.19 in data set [4]; 6.41 in data set [5] (72 h); no less than 6.40 in data set [5] (Homo sapiens, SNB-19, 72 h).
Compound `C=C(Cn1cc(CNS(=O)(=O)c2cccc3cccnc23)nn1)[C@@H]1CC[C@]2(COC(C)=O)CC[C@]3(C)[C@H](CC[C@@H]4[C@@]5(C)CC[C@H](OC(C)=O)C(C)(C)[C@@H]5CC[C@]43C)[C@@H]12` [Compound 14a, 8-N-({1-[3β, 28-Diacetoxylup-20(29)-en-30-yl]-1H-1,2,3-triazol-4-yl}methyl)-quinolinesulfonamide] had a melting point of 148 to 149 °C. Moreover, the pIC50 in data set [1] is less than 3.30. Besides, the pIC50 in [2] was less than 3.30. In data set [3] (Homo sapiens, Caco-2, 72 h), this compound showed a pIC50 of less than 3.30. Further, the pIC50 in data set [4] is less than 3.30. In [5] (Homo sapiens, SNB-19, 72 h), this compound gave a pIC50 of 3.99.
For the compound `C=C(Cn1cc(CN(C)S(=O)(=O)c2cccc3cccnc23)nn1)[C@@H]1CC[C@]2(COC(C)=O)CC[C@]3(C)[C@H](CC[C@@H]4[C@@]5(C)CC[C@H](OC(C)=O)C(C)(C)[C@@H]5CC[C@]43C)[C@@H]12` [Compound 14b, 8-N-methyl-N-({1-[3β, 28-diacetoxylup-20(29)-en-30-yl]-1H-1,2,3-triazol-4-yl}methyl)-quinolinesulfonamide], the pIC50 in data set [1] is less than 3.30; in [3] (Homo sapiens, Caco-2, 72 h), 4.74; in [6], less than 3.30; in [4], 5.96; in [5] (Homo sapiens, SNB-19, 72 h), 5.03.
`O=S(=O)(c1cccc2cnccc12)N1CCCNCC1` [Fasudil]: in data set [7], the “IC50 HCC” value is 0.04 µg/mL (≈ 0.137 µM). Besides, the pIC50 in data set [8] was […].
